The record followed here is publication PMC6658140 (ACS catalysis, 2019).

The target of experiment [1] is TropB (Talaromyces stipitatus, UniProt B8M9J8, R206Q). The experiment can be described thus: change in absorbance at […] nm. The format is binding.
Experiment [2] addresses TropB (Talaromyces stipitatus, UniProt B8M9J8). The experiment is described as follows: change in absorbance at […] nm. The format is binding.

Chain of TropB (Talaromyces stipitatus, UniProt B8M9J8) (B8M9J8 whole entry): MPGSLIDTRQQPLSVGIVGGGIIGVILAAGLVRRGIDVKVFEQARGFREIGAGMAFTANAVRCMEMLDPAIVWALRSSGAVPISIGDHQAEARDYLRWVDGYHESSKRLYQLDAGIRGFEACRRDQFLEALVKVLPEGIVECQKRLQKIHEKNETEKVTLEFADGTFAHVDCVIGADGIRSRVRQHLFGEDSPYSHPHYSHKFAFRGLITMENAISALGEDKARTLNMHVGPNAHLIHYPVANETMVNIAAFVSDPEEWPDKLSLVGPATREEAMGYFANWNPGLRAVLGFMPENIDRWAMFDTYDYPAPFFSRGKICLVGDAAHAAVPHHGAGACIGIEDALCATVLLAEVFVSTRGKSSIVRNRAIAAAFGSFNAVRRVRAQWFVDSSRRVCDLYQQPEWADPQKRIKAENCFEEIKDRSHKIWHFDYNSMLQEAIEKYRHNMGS
Chain of TropB (Talaromyces stipitatus, UniProt B8M9J8, R206Q) (B8M9J8 whole entry R206Q): as the sequence (B8M9J8 whole entry) above, with R206Q counted along it

`Cc1cc(O)c(C)c(O)c1C=O` [compound 1, 3-methylorcinaldehyde]: the Kd at TropB [1] turned out to be 32 ± 4 µM; at TropB [2], 21 ± 2 µM.
